Assay results from patent publication US7888332B2, “Hydrazide-containing CFTR inhibitor compounds and uses thereof” (The Regents of the University of California, priority 2004, dated 2011).
Read-outs that look alike come from different tables or passages of the source.

Columns and labels:
CFTR [1] = molecular target: T1, CFTR (Homo sapiens, UniProt P13569); assay: Short-circuit current (apical Cl− current) analysis on permeabilized CFTR-expressing FRT cells; conditions: for inhibition at 50 µM: FRT, read-out: % inhibition at 50 μM; for change of inhibitory potency relative to parent compound: vs GlyH-101 / GlyH-102
Target sequence in this assay (P13569 whole entry): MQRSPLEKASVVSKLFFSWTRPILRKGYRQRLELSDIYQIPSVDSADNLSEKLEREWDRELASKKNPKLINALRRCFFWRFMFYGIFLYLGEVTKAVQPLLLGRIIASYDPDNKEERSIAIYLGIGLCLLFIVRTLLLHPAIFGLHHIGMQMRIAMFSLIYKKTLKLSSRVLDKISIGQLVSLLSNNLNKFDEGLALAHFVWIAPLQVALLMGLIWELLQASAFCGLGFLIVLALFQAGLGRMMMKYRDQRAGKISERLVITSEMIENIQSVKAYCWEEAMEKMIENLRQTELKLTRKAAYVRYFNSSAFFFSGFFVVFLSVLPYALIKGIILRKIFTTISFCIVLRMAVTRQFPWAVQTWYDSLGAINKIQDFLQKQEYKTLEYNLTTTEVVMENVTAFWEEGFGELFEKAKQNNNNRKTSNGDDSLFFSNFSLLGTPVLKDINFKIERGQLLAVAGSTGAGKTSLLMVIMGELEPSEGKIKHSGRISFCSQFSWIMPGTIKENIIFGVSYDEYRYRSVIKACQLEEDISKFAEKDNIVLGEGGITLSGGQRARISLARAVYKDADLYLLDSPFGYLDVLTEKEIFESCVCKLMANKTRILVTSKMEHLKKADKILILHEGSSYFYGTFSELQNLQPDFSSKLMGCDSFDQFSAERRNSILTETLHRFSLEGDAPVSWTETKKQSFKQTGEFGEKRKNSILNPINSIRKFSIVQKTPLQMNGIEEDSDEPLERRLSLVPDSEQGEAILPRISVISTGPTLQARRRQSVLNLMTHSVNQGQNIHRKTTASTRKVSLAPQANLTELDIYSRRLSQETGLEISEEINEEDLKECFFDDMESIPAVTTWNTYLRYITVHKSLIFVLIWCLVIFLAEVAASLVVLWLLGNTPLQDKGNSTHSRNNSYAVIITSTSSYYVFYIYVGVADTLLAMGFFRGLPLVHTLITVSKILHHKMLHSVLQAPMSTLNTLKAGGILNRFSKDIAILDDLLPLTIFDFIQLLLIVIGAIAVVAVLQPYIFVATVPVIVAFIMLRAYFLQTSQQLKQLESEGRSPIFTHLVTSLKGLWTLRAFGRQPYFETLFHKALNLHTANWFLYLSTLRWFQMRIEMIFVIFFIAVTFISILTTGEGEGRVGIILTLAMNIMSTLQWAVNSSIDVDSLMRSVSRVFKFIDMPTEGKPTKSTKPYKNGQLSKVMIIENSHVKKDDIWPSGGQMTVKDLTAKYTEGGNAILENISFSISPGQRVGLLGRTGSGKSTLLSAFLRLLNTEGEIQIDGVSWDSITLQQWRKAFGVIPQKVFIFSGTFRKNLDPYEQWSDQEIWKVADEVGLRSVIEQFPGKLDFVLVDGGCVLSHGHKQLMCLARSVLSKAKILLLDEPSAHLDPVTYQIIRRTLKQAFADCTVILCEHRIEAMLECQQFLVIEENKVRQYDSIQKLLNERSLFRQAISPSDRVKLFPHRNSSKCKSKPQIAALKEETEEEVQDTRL

[2] = system: upper airway CFTR Cl− conductance; assay: Nasal potential difference measurements in mice; conditions: compound in all solutions (100 μM)
CFTR [3] = molecular target: T1, CFTR; design: host or cells: 'permeabilized cell preparations' and 'most intact epithelial cells' (not specified); conditions: cited from earlier work
Target sequence in this assay (P13569 whole entry, species assumed): as the sequence (P13569 whole entry) above

CFTR [4] = molecular target: T1, CFTR; assay: Whole-cell patch-clamp on FRT cells expressing CFTR; format: cell-based; design: expressed in transfected cells; host or cells: Fisher Rat Thyroid (FRT) cells, stably transfected; conditions: GlyH-101 at submaximal concentrations; CFTRinh-172 5 μM
Experimental: Patch-clamp experiments were carried out at room temperature on FRT cells stably expressing wildtype CFTR. Cell-attached and whole-cell configurations were used (Hamill et al., Pflugers Arch. 391:85-100, 1981). The cell membrane was clamped at specified voltages using an EPC-7 patch-clamp amplifier (List Medical). Data were filtered at 500 Hz and digitized at 2000 Hz. For whole-cell experiments the pipette solution contained (in mM): 120 CsCl, 10 TEA-Cl, 0.5 EGTA, 1 MgCl2, 40 mannitol, 10 Cs-HEPES and 3 mM MgATP (pH 7.3). For cell attached experiments EGTA was replaced with 1 mM CaCl2. The bath solution for whole-cell experiments contained (in mM): 150 NaCl, 1 CaCl2, 1 MgCl2, 10 glucose, 10 mannitol, 10 Na-TES (pH 7.4). In cell-attached experiments the bath solution contained (in mM): 130 KCl, 2 NaCl, 2 CaCl2, 2 MgCl2, 10 glucose, 20 mannitol, and 10 K-Hepes (pH 7.3). Inhibitors were applied by extracellular perfusion. CFTR channel activity in cell-attached patches was analyzed as described previously (Taddei et al., FEBS Lett. 558:52-56, 2004).
The mechanism of CFTR block by GlyH-101 was studied using the whole-cell configuration of the patch-clamp technique. After maximal activation of CFTR in stably transfected FRT cells by 5 μM forskolin, current-voltage relationships were measured at GlyH-101 concentrations from 0 to 50 μM. […] Extracellular perfusion with 10 μM GlyH-101 produced an immediate reduction in current that was strongly dependent on membrane potential (FIG. 4A, right panel). At more positive membrane potentials outward positive currents (Cl^− movement into the cell) were reduced compared to inward currents. […] Data for the thiazolidinone 3-[(3-trifluoromethyl)phenyl]-5-[(4-carboxyphenyl)methylene]-2-thioxo-4-thiazolidinone (referred to herein as CFTRinh-172) (5 μM) is shown for comparison. […] FIG. 4C summarizes percentage CFTR current block as a function of GlyH-101 concentration at different membrane voltages.
Target sequence in this assay (P13569 whole entry): as above

[5] = Intestinal absorption in closed mid-jejunal loops; format: in vivo; conditions: mice, 2 hours
Experimental: Absorption studies were performed using mid-jejunal loops created as described above. […] After 2 hours loop fluid was withdrawn and optical absorbance of test compound and FITC were measured (OD342/OD494nm). Percentage intestinal absorption was computed assuming zero absorption of FITC-dextran.
Intestinal absorption was measured in mice in vivo from the disappearance of MalH compounds from the lumens of closed mid-jejunal loops over 2 hours. In these experiments mannitol was included in the MalH-containing solutions to prevent fluid absorption. Absorption rates were referenced against a large FITC-dextran, which was assumed to undergo no absorption over the 2 hour study.

[6] = Spectrophotometric pH titration (pKa); format: physicochemical; conditions: read-out: pKa, secondary amine
Experimental: FIG. 5A is a graph illustrating the pH-dependent absorbance changes (right panel) of the chemical compounds (10 μM) (corresponding chemical structures, left panel) in NaCl (100 mM) containing MES, HEPES, boric acid, and citric acid (each 10 mM) titrated to different pH using HCl/NaOH. Absorbance changes measured at analytical wavelengths of 346, 348, 346, and 236 nm (top to bottom).

[7] = Ki, Table 1, Group I, concentration giving 50% inhibition of CFTR Cl− conductance
[8] = Ki, Table 4, Group IV, concentration giving 50% inhibition of CFTR Cl− conductance
[9] = Ki, Table 3, Group III, concentration giving 50% inhibition of CFTR Cl− conductance
[10] = Ki, Table 2, Group II, concentration giving 50% inhibition of CFTR Cl− conductance
[11] = Table 1, Group I, concentration giving 50% inhibition of CFTR Cl− conductance

| inhibition at 50 µM (CFTR [1]) | Ki (CFTR [1]; [7]) | Compound | other results |
| --- | --- | --- | --- |
| 95% | 5 µM | O=C(CNc1ccc(Cl)cc1)NN=Cc1cc(Br)c(O)c(Br)c1 [GlyH-114] | – |
| 86% | – | O=C(COc1ccc2ccccc2c1)NN=Cc1cc(Br)c(O)c(Br)c1 [AceH-402] | Ki (CFTR [1]; [8]): 17 µM |
| 91% | 5 µM | O=C(CNc1ccc(Cl)cc1)NN=Cc1cc(Br)c(O)c(Br)c1O [GlyH-115] | – |
| 55% | – | O=C(CNc1ccc2ccccc2c1)NNCc1cc(Br)c(O)c(Br)c1 [GlyH-302] | Ki (CFTR [1]; [9]): ~50 µM |
| – | – | O=C(NNC(=O)c1cc(Br)c(O)c(Br)c1O)C(=O)Nc1ccc2ccccc2c1 [OxaH-203] | Ki (CFTR [1]; [10]): > 50 µM |
| 54% | – | Cc1ccc(CC(=O)NN=Cc2cc(Br)c(O)c(Br)c2O)cc1 [AceH-403] | Ki (CFTR [1]; [8]): 10 µM |
| 95% | 3 µM | CC(=NNC(=O)C(=O)Nc1ccc2ccccc2c1)c1cc(Br)c(O)c(Br)c1O [OxaH-112] | – |
| 56% | 20 µM | COc1c(Br)cc(C=NNC(=O)CNc2ccc3ccccc3c2)c(O)c1Br [GlyH-103] | – |
| – | – | O=S(=O)(O)c1cc(N=C=S)ccc1C=Cc1ccc(N=C=S)cc1S(=O)(=O)O [DIDS, reference compound] | inhibition of (CFTR-independent) hyperpolarization produced by low Cl− [2]: partial inhibition |
| 78% | – | O=C(NNCc1cc(Br)c(O)c(Br)c1)C(=O)Nc1ccc2ccccc2c1 [OxaH-304] | Ki (CFTR [1]; [9]): 12 µM |
| – | – | O=C(O)c1ccc(C=C2SC(=S)N(c3cccc(C(F)(F)F)c3)C2=O)cc1 [CFTRinh-172, 3-[(3-trifluoromethyl)phenyl]-5-[(4-carboxyphenyl)methylene]-2-thioxo-4-thiazolidinone] | Ki (CFTR [3]; most intact epithelial cells): 2 to 5 µM; Ki (CFTR [3]; permeabilized cell preparations): 0.2 to 0.3 µM; current-voltage relationship (CFTR [4]): linear; absorption from closed mid-jejunal loops [5]: > 90% |
| – | – | CC(Nc1ccc2ccccc2c1)C(=O)NN=Cc1cc(Br)c(O)c(Br)c1O (stereo not shown) [GlyH-106] | % inhibition at 50 μM (CFTR [1]; Table 1, Group I): 91%; Ki (CFTR [1]; [11]): 6 µM |
| – | – | O=C(CNc1ccc2ccccc2c1)N/N=C/c1cc(Br)c(O)c(Br)c1 [GlyH-102] | % inhibition at 50 μM (CFTR [1]; Table 1, Group I): 98%; Ki (CFTR [1]; [11]): 5 µM |
| – | – | O=C(NNC(=O)c1cc(Br)c(O)c(Br)c1)C(=O)Nc1ccc2ccccc2c1 [OxaH-204] | Ki (CFTR [1]; [10]): > 50 µM |
| – | – | CCOC(=O)CNc1ccc2ccccc2c1 [ethyl N-(2-napthalenyl) glycinate, ethyl N-(2-naphthalenyl)glycinate] | pKa [6]: ~4.7 |
| 57% | – | O=C(CNc1ccc2ccccc2c1)NNC(=O)c1cc(Br)c(O)c(Br)c1 [GlyH-202, 3,5-dibromo-4-hydroxy-[2-(2-napthalenamine)aceto]benzoic acid hydrazide] | Ki (CFTR [1]; [10]): 22 µM |
| 86% | 12 µM | O=C(CNc1cccc2ccccc12)NN=Cc1cc(Br)c(O)c(Br)c1O [GlyH-104] | change of inhibitory potency relative to parent compound (CFTR [1]): ten-fold |
| – | – | CC(=NNC(=O)CNc1ccc2ccccc2c1)c1cc(Br)c(O)c(Br)c1O [GlyH-108] | % inhibition at 50 μM (CFTR [1]; Table 1, Group I): 81%; Ki (CFTR [1]; [11]): 10 µM |
| 87% | 15 µM | O=C(CNc1cccc2ccccc12)NN=Cc1cc(Br)c(O)c(Br)c1 [GlyH-105] | – |
| 90% | 3 µM | CC(=NNC(=O)C(=O)Nc1ccc2ccccc2c1)c1cc(Br)c(O)c(Br)c1 [OxaH-113] | – |
| 63% | – | Cc1ccc(CC(=O)NN=Cc2cc(Br)c(O)c(Br)c2)cc1 [AceH-404] | Ki (CFTR [1]; [8]): 15 µM |
| 100% | 2.5 µM | CC(=NNC(=O)CNc1ccc2ccccc2c1)c1cc(Br)c(O)c(Br)c1 [GlyH-109] | – |
| 70% | – | O=C(NNCc1cc(Br)c(O)c(Br)c1O)C(=O)Nc1ccc2ccccc2c1 [OxaH-303] | Ki (CFTR [1]; [9]): 10 µM |
| 80% | 10 µM | CC(Nc1ccc2ccccc2c1)C(=O)NN=Cc1cc(Br)c(O)c(Br)c1 (stereo not shown) [GlyH-107] | – |
| 52% | 2.5 µM | O=C(NN=Cc1cc(Br)c(O)c(Br)c1)C(=O)Nc1ccc2ccccc2c1 [OxaH-111] | change of inhibitory potency relative to parent compound (CFTR [1]): two-three fold greater |
| 84% | – | O=C(COc1ccc2ccccc2c1)NN=Cc1cc(Br)c(O)c(Br)c1O [AceH-401] | Ki (CFTR [1]; [8]): 21 µM |
| 86% | 2 µM | O=C(NN=Cc1cc(Br)c(O)c(Br)c1O)C(=O)Nc1ccc2ccccc2c1 [OxaH-110, N-2-napthalenyl-[(3,5-dibromo-2,4-dihydroxyphenyl)methylene]oxamic acid hydrazide] | Ki (CFTR [1]; apparent Ki, CFTR stimulated by 100 μM CPT-cAMP): ~2 µM; change of inhibitory potency relative to parent compound (CFTR [1]): two-three fold greater |
| 79% | 10 µM | Cc1ccc(NCC(=O)NN=Cc2cc(Br)c(O)c(Br)c2O)cc1 [GlyH-116] | – |
